From BindingDB's records for doi:10.1124/jpet.102.047092 (Case Western Reserve University, 2003)

Experiments:
[1] = biological target: 5-hydroxytryptamine receptor 6 (Homo sapiens, UniProt P50406)
[2] = biological target: Sodium-dependent noradrenaline transporter (Homo sapiens, UniProt P23975)
[3] = biological target: T1, 5-hydroxytryptamine receptor 3A (Homo sapiens, UniProt P46098)
T1 sequence (P46098 whole entry): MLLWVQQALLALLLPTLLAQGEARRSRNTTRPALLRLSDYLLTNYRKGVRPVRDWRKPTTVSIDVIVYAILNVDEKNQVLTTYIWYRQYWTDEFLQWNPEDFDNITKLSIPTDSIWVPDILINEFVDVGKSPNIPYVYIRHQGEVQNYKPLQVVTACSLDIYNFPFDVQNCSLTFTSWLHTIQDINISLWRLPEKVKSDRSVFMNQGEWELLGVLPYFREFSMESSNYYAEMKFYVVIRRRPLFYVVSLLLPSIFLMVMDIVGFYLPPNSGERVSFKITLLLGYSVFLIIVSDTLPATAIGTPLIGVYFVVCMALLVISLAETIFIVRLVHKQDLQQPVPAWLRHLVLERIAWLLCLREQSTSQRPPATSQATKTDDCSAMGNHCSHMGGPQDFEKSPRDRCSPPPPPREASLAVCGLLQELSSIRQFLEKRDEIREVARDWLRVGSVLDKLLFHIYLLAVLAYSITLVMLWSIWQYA

D(2) dopamine receptor = D(2) dopamine receptor (Homo sapiens, UniProt P14416)
[4] = biological target: T2, Alpha-1A adrenergic receptor (Homo sapiens, UniProt P35348)
T2 sequence (P35348 whole entry): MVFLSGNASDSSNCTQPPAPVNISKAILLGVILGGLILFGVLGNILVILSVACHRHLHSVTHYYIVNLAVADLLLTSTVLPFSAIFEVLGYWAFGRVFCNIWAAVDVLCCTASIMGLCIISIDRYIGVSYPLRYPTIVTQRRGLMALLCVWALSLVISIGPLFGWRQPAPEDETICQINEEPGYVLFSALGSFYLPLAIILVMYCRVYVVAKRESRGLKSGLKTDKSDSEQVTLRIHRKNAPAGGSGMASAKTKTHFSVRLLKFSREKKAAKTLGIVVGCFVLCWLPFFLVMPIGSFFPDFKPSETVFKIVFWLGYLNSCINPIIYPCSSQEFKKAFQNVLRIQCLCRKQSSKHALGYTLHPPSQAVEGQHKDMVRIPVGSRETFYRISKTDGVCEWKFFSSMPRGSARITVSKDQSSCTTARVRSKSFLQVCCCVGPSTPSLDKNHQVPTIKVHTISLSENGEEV

[5] = biological target: T3, 5-hydroxytryptamine receptor 2C (Rattus norvegicus, UniProt P08909)
T3 sequence (P08909 whole entry): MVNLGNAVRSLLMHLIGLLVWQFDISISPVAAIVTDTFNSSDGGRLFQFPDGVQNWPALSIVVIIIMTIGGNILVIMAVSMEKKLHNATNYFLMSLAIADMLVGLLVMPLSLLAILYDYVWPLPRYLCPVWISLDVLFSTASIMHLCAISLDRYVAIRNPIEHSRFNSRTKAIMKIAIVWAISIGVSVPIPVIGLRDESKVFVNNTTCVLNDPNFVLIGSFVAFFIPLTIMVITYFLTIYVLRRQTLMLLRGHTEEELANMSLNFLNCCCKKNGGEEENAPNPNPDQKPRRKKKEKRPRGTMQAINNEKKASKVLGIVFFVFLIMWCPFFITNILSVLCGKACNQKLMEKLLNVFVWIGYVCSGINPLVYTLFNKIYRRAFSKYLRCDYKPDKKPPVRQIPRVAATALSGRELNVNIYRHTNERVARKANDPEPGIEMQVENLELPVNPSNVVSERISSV

[6] = biological target: T4, Muscarinic acetylcholine receptor M2 (Homo sapiens, UniProt P08172)
T4 sequence (P08172 whole entry): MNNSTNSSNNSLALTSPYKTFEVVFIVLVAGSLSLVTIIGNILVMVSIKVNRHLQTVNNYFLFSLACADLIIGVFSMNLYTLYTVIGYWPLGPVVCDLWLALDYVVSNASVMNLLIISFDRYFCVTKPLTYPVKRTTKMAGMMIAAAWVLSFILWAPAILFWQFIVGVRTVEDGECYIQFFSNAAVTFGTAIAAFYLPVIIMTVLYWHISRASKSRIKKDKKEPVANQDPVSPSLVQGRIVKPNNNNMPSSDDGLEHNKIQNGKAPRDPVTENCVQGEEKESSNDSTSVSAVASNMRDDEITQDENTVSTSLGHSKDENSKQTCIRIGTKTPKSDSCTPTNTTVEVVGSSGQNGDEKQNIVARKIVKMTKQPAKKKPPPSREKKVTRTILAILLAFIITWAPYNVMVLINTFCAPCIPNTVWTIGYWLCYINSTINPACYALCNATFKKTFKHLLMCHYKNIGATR

[7] = biological target: Gamma-aminobutyric acid receptor subunit alpha-1 (Rattus norvegicus, UniProt P62813)
[8] = biological target: T5, Alpha-1B adrenergic receptor (Homo sapiens, UniProt P35368)
T5 sequence (P35368 whole entry): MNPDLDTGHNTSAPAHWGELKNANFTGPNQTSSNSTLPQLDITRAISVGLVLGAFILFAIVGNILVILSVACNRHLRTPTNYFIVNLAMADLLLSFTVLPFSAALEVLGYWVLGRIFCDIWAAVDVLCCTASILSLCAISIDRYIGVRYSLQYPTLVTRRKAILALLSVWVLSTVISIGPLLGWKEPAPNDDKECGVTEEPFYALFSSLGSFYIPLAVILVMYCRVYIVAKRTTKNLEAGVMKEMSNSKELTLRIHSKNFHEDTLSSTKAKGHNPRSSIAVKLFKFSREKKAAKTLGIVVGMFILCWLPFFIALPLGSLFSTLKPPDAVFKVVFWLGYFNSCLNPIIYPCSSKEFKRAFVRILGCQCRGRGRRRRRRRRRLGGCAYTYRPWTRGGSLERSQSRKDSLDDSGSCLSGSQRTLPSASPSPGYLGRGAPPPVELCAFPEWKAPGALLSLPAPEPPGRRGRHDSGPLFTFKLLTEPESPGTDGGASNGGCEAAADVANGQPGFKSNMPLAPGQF

Chain of Gamma-aminobutyric acid receptor subunit alpha-1 (P62813 whole entry): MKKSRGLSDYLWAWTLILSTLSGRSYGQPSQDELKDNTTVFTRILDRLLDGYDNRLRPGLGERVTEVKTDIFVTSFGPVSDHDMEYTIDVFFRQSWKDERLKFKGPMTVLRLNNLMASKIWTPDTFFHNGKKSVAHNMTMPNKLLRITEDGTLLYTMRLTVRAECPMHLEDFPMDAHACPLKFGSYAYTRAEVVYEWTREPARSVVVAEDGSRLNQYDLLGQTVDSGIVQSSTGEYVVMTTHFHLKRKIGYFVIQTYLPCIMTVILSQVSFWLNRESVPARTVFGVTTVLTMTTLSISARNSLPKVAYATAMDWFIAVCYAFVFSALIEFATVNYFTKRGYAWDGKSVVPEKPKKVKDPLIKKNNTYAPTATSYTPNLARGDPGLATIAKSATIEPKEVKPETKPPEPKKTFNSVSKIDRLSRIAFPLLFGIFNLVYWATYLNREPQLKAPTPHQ
Chain of Sodium-dependent noradrenaline transporter (P23975 whole entry): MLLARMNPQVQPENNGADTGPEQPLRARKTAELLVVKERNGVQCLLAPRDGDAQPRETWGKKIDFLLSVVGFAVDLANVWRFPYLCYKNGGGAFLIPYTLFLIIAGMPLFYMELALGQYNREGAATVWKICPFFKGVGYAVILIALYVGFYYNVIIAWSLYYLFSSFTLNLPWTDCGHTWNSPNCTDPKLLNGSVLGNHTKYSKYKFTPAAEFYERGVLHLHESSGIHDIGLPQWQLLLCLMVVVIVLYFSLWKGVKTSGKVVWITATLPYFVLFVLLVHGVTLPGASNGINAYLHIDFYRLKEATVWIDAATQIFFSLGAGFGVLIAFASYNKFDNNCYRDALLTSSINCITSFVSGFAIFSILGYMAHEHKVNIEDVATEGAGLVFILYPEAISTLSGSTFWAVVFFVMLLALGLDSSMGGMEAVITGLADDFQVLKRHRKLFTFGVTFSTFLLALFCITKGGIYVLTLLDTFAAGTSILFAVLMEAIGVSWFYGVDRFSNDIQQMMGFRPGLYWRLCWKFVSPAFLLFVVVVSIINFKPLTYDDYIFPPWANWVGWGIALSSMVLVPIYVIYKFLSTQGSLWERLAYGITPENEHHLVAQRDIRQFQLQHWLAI
Chain of D(2) dopamine receptor (P14416 whole entry): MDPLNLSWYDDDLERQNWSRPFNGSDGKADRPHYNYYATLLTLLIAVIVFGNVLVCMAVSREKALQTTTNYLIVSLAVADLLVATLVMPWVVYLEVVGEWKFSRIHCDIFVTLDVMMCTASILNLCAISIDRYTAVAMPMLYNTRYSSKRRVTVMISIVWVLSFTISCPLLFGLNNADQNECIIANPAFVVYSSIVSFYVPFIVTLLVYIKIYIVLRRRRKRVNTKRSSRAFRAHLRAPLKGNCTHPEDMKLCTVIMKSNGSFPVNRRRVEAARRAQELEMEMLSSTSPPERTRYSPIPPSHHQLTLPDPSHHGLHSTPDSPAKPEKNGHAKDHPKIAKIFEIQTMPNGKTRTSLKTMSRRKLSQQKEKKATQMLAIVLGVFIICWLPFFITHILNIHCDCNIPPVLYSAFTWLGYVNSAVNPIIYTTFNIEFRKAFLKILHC
Chain of 5-hydroxytryptamine receptor 6 (P50406 whole entry): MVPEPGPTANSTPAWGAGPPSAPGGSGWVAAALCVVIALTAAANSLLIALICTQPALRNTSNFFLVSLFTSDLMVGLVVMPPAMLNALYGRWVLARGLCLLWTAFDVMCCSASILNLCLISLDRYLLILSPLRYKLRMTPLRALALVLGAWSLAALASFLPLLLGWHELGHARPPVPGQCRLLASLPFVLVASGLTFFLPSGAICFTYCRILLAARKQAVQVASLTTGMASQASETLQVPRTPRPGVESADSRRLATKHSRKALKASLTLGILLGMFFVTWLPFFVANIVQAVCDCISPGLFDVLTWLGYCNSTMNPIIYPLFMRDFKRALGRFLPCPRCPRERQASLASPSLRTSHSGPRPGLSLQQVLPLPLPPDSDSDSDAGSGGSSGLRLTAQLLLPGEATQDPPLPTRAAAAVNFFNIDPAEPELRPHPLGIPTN

Ki [1] | Ki [2] | Ki [3] | Ki (D(2) dopamine receptor) | Ki [4] | Ki [5] | Ki [6] | Ki [7] | Ki [8] | Compound
> 10 µM | > 10 µM | > 10 µM | > 10 µM | > 10 µM | > 10 µM | > 10 µM | > 10 µM | > 10 µM | N[C@H](CCS(=O)O)C(=O)O [D-homocysteine sulfinic acid]
> 10 µM | > 10 µM | > 10 µM | > 10 µM | > 10 µM | > 10 µM | > 10 µM | > 10 µM | > 10 µM | NC(CS(=O)O)C(=O)O (stereo not drawn) [CAS_109]
> 10 µM | > 10 µM | > 10 µM | > 10 µM | > 10 µM | > 10 µM | > 10 µM | > 10 µM | > 10 µM | N[C@@H](CS)C(=O)O [CAS_5862]
> 10 µM | > 10 µM | > 10 µM | > 10 µM | > 10 µM | > 10 µM | > 10 µM | > 10 µM | > 10 µM | N[C@H](CS(=O)(=O)O)C(=O)O [L-cysteic acid]
> 10 µM | > 10 µM | > 10 µM | > 10 µM | > 10 µM | > 10 µM | > 10 µM | > 10 µM | > 10 µM | N[C@@H](CCS)C(=O)O (racemic) [CAS_778]

Continued, molecule first:

Compound | Ki [1] | Ki [2] | Ki [3] | Ki (D(2) dopamine receptor) | Ki [4] | Ki [5] | Ki [6] | Ki [7] | Ki [8]
N[C@@H]1CCSC1=O [D-homocysteine thiolactone] | > 10 µM | > 10 µM | > 10 µM | > 10 µM | > 10 µM | > 10 µM | > 10 µM | > 10 µM | > 10 µM
N[C@@H](CCS(=O)(=O)O)C(=O)O (racemic) | > 10 µM | > 10 µM | > 10 µM | > 10 µM | > 10 µM | > 10 µM | > 10 µM | > 10 µM | > 10 µM
NC(CSSCC(N)C(=O)O)C(=O)O (stereo not drawn) [CAS_595] | > 10 µM | > 10 µM | > 10 µM | > 10 µM | > 10 µM | > 10 µM | > 10 µM | > 10 µM | > 10 µM
N[C@@H](CCS(=O)O)C(=O)O [L-homocysteine sulfinic acid] | > 10 µM | > 10 µM | > 10 µM | > 10 µM | > 10 µM | > 10 µM | > 10 µM | > 10 µM | > 10 µM
N[C@H](CCS(=O)(=O)O)C(=O)O [D-homocysteic acid] | > 10 µM | > 10 µM | > 10 µM | > 10 µM | > 10 µM | > 10 µM | > 10 µM | > 10 µM | > 10 µM
N[C@H]1CCSC1=O [NSC_134505] | > 10 µM | > 10 µM | > 10 µM | > 10 µM | > 10 µM | > 10 µM | > 10 µM | > 10 µM | > 10 µM
CSCC[C@@H](N)C(=O)O [CAS_6137] | > 10 µM | > 10 µM | > 10 µM | > 10 µM | > 10 µM | > 10 µM | > 10 µM | > 10 µM | > 10 µM
